Results published in ChEMBL document CHEMBL4673346, “Discovery of a benzimidazole series as the first highly potent and selective ACSL1 inhibitors” (Bioorg Med Chem Lett, 2021).

How the values were obtained:
[1] = molecular target: T1, Long-chain-fatty-acid--CoA ligase 1 (Mus musculus, UniProt P41216); test: Inhibition of recombinant mouse ACSL1 assessed as reduction in […] prodution incubated for 90 mins in presence of Coenzyme A, ATP and MgCl2 by MALDI-TOF MS analysis
T1 sequence (P41216 whole entry): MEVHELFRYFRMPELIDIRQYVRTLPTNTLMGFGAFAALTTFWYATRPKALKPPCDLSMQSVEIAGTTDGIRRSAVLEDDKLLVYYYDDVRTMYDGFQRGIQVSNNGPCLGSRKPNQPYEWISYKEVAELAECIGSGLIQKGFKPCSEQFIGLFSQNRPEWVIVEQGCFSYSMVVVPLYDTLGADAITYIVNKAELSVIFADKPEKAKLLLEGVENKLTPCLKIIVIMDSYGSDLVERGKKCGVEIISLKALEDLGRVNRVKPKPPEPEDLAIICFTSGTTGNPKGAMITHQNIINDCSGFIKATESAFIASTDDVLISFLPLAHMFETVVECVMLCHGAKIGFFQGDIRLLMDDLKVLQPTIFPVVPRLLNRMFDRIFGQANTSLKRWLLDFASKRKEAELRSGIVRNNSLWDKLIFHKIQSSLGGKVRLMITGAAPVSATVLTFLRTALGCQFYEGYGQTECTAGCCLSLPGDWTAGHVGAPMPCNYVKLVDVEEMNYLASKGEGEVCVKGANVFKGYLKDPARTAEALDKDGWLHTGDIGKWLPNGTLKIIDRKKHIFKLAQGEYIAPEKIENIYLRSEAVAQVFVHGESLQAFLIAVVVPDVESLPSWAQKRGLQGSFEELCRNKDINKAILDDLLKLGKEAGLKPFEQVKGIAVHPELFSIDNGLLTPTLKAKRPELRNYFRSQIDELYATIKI

[2] = molecular target: T2, Long-chain-fatty-acid--CoA ligase 1 (Homo sapiens, UniProt P33121); test: Inhibition of recombinant human ACSL1 assessed as reduction in […] prodution incubated for 90 mins in presence of Coenzyme A, ATP and MgCl2 by MALDI-TOF MS analysis
T2 sequence (P33121 whole entry): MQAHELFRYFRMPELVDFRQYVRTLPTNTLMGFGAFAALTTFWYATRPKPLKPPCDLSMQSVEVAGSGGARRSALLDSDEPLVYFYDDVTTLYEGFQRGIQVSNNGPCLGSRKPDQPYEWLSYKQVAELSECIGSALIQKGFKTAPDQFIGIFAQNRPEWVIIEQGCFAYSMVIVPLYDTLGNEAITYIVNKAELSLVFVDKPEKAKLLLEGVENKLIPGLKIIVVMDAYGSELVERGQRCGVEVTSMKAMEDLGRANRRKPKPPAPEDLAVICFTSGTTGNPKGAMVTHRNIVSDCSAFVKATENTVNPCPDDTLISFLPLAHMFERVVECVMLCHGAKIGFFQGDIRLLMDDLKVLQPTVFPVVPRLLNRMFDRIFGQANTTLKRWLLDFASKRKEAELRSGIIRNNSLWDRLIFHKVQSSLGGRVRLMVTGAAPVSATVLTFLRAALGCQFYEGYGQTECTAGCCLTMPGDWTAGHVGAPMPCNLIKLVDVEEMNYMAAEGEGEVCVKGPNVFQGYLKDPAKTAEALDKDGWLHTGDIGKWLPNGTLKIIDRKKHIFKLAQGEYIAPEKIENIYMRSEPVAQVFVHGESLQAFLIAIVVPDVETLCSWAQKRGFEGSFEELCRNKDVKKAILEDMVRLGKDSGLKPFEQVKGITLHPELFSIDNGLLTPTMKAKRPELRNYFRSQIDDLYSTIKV

[3] = molecular target: T2, Long-chain-fatty-acid--CoA ligase 1; test: Inhibition of ACSL1 (unknown origin) assessed as reduction in […] prodution incubated for 90 mins in presence of Coenzyme A, ATP and MgCl2 by MALDI-TOF MS analysis
[4] = molecular target: T3, Long-chain-fatty-acid--CoA ligase 6 (Homo sapiens, UniProt Q9UKU0); test: Inhibition of recombinant human ACSL6 assessed as reduction in […] prodution incubated for 60 mins in presence of Coenzyme A, ATP and MgCl2 by MALDI-TOF MS analysis
T3 sequence (Q9UKU0 whole entry): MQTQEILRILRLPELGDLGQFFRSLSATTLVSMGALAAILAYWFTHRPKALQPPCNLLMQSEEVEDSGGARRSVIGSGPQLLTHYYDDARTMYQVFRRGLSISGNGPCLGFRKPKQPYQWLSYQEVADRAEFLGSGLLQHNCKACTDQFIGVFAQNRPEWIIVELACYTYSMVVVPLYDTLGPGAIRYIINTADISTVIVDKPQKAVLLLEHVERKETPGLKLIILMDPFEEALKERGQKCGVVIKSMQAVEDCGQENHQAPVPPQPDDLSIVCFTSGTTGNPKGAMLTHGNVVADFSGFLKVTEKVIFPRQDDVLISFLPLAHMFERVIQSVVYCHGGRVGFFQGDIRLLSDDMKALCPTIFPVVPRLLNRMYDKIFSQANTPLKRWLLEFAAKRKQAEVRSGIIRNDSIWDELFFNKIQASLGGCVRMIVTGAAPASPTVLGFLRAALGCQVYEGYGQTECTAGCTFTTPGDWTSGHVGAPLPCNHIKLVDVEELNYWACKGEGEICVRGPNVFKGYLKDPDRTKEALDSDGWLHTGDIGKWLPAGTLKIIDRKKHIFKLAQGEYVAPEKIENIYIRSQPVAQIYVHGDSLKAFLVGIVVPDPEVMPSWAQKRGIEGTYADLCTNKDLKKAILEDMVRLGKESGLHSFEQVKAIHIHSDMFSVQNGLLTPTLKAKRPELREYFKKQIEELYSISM

[5] = molecular target: Fatty acid CoA ligase Acsl3 (Homo sapiens, UniProt O95573); test: Inhibition of recombinant human ACSL3 assessed as reduction in […] prodution incubated for 90 mins in presence of Coenzyme A, ATP and MgCl2 by MALDI-TOF MS analysis
Sequence of Fatty acid CoA ligase Acsl3 (O95573 whole entry): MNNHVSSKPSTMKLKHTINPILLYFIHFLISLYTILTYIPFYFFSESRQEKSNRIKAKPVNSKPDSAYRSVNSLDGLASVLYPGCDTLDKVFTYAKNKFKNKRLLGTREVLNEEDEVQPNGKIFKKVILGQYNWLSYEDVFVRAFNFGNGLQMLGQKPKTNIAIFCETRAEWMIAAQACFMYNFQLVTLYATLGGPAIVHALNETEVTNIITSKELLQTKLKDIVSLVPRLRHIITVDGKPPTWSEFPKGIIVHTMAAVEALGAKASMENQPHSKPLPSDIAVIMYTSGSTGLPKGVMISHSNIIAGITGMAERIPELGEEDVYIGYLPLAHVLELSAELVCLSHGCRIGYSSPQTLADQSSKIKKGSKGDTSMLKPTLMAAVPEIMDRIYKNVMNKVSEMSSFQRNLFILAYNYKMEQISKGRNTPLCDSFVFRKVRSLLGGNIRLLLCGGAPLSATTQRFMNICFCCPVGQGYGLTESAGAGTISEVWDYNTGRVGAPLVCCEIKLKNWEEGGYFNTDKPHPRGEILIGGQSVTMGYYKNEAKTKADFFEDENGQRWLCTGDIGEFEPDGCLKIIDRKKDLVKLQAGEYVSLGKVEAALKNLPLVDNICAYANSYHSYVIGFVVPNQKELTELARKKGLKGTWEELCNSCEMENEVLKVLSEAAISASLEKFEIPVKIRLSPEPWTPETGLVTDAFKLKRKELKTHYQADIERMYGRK

[6] = molecular target: T4, Long-chain-fatty-acid--CoA ligase 5 (Homo sapiens, UniProt Q9ULC5); test: Inhibition of recombinant human ACSL5 assessed as reduction in […] prodution incubated for 90 mins in presence of Coenzyme A, ATP and MgCl2 by MALDI-TOF MS analysis
T4 sequence (Q9ULC5 whole entry): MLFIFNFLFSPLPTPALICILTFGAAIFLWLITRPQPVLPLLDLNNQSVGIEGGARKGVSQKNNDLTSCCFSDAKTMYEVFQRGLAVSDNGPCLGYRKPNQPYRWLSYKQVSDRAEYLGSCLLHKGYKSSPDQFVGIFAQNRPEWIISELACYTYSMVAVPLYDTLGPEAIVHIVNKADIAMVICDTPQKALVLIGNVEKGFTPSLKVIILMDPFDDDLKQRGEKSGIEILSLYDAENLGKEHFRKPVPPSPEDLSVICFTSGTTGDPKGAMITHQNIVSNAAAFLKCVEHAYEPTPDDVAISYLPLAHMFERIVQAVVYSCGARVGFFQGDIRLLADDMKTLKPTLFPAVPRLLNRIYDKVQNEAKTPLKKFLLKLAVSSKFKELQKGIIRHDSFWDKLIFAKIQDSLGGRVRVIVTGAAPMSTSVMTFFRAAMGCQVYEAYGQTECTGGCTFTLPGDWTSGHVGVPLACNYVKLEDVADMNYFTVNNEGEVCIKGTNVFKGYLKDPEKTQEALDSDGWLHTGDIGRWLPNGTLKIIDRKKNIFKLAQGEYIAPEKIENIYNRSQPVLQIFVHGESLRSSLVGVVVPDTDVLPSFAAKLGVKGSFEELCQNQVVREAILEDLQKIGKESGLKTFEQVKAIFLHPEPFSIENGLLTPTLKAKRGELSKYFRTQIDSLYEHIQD

[7] = molecular target: Long-chain-fatty-acid--CoA ligase 4 (Homo sapiens, UniProt O60488); test: Inhibition of recombinant human ACSL4 assessed as reduction in […] prodution incubated for 120 mins in presence of Coenzyme A, ATP and MgCl2 by MALDI-TOF MS analysis
Sequence of Long-chain-fatty-acid--CoA ligase 4 (O60488 whole entry): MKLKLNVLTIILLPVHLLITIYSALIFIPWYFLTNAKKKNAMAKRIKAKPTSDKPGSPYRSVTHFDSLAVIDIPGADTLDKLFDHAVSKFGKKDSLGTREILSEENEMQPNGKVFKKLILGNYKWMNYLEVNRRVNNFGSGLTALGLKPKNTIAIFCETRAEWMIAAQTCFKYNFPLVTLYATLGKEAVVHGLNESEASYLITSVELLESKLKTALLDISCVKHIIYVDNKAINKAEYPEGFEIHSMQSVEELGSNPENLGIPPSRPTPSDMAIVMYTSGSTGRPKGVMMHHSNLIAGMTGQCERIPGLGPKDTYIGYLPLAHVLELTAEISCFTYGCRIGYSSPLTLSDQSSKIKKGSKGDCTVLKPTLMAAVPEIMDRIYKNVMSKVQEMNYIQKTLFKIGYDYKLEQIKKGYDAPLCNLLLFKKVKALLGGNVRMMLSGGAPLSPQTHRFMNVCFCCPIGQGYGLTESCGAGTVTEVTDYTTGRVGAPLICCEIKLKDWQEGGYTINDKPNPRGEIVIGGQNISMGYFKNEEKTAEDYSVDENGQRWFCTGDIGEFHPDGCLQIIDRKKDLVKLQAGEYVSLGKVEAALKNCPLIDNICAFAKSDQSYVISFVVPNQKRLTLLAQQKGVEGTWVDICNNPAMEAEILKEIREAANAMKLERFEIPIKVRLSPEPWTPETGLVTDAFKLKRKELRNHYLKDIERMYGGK

Row | IC50 [1] [µM] | IC50 [2] [µM] | SMILES | further results
1 | 0.1 | 0.047 | Cc1cccc(Cc2nc3cc(O[C@H]4CC[C@@H](c5noc(=O)[nH]5)CC4)ccc3n2C)c1 | 
2 | 0.1 | 0.047 | Cc1cccc(Cc2nc3cc(O[C@H]4CC[C@@H](C(=O)O)CC4)c(Cl)cc3n2C)c1 | 
3 | 4 | 4.6 | O=C(O)[C@H]1CC[C@@H](Oc2ccc3c(c2)Cc2ccccc2O3)CC1 | 
4 | 46 | 41 | Cc1cccc(Cc2nc3cc(O[C@H]4CC[C@@H](C(=O)O)CC4)ncc3n2C)c1 | 
5 | 1.4 | 0.24 | O=c1c2ccccc2oc2ccc(O[C@H]3CC[C@H](C(=O)O)CC3)cc12 | IC50 [3]: > 200 µM
6 | 22 | 51 | Cn1c(Cc2cccc(C#N)c2)nc2cc(O[C@H]3CC[C@@H](C(=O)O)CC3)ccc21 | 
7 | > 200 | > 200 | Cc1cccc(Cc2nc3cc(O[C@H]4CC[C@@H](C(=O)O)CC4)ccc3n2C(C)C)c1 | 
8 | 0.079 | 0.044 | Cc1cccc(Cc2nc3nc(O[C@H]4CC[C@@H](C(=O)O)CC4)ccc3n2C)c1 | 
9 | 0.19 | 0.95 | Cc1cccc(Cc2nc3cc(O[C@H]4CC[C@@H](C(N)=O)CC4)ccc3n2C)c1 | 
10 | 8.1 | 17 | Cc1cccc(COc2nc3cc(O[C@H]4CC[C@@H](C(=O)O)CC4)ccc3n2C)c1 | 
11 | 0.14 | 0.039 | Cc1cccc(Cc2nc3cc(O[C@H]4CC[C@@H](C(=O)O)CC4)ccc3o2)c1 | 
12 |  |  | O=C(O)CCCCCCOc1ccc2oc3ccccc3c(=O)c2c1 | IC50 [4]: 6.2 µM; IC50 [5]: 114 µM; IC50 [6]: > 200 µM; IC50 [7]: > 200 µM; IC50 [3]: 0.31 µM
13 | 0.08 | 0.15 | Cc1ccc(Cc2nc3cc(O[C@H]4CC[C@@H](C(=O)O)CC4)ccc3n2C)cc1 | 
14 | 5.4 | 7.8 | Cc1ccccc1Cc1nc2cc(O[C@H]3CC[C@@H](C(=O)O)CC3)ccc2n1C | 
15 | > 200 | > 200 | Cc1cccc(Cc2nc3ccc(O[C@H]4CC[C@@H](C(=O)O)CC4)cc3n2C)c1 | 
16 |  |  | O=C(O)c1ccc(Oc2ccc3oc4ccccc4c(=O)c3c2)cc1 | IC50 [3]: > 200 µM
17 |  |  | O=c1c2ccccc2oc2ccc(O[C@H]3CC[C@@H](C(=O)O)CC3)cc12 | IC50 [4]: 70 µM; IC50 [5]: 69 µM; IC50 [6]: > 200 µM; IC50 [7]: > 200 µM; IC50 [3]: 0.24 µM
18 |  |  | O=C(O)C[C@H]1CC[C@@H](Oc2ccc3oc4ccccc4c(=O)c3c2)CC1 | IC50 [3]: 18 µM
19 | 0.015 | 0.003 | Cn1c(Cc2ccc3c(c2)OCC3)nc2cc(O[C@H]3CC[C@@](F)(c4nnn[nH]4)CC3)ccc21 | 

Row | IC50 [1] [µM] | IC50 [2] [µM] | SMILES | further results
20 | 21 | 78 | Cc1cccc(Oc2nc3cc(O[C@H]4CC[C@@H](C(=O)O)CC4)ccc3n2C)c1 | 
21 |  |  | O=C(O)CCCCOc1ccc2oc3ccccc3c(=O)c2c1 | IC50 [4]: 93 µM; IC50 [5]: > 200 µM; IC50 [6]: > 200 µM; IC50 [7]: > 200 µM; IC50 [3]: 1.7 µM
22 |  |  | O=c1c2ccccc2oc2ccc(OC[C@H]3CC[C@@H](C(=O)O)CC3)cc12 | IC50 [3]: > 200 µM
23 | 0.17 | 0.028 | Cc1cccc(Cc2nc3cc(O[C@H]4CC[C@@H](C(=O)O)CC4)cc(Cl)c3n2C)c1 | 
24 | 0.053 | 0.045 | Cc1cccc(Cn2nc3cc(O[C@H]4CC[C@@H](C(=O)O)CC4)ccc3c2C)c1 | 
25 | 0.4 | 0.4 | Cc1cccc(Cc2cc3cc(O[C@H]4CC[C@@H](C(=O)O)CC4)ccc3n2C)c1 | 
26 |  |  | O=c1c2ccccc2oc2ccc(OC[C@H]3CC[C@H](C(=O)O)CC3)cc12 | IC50 [3]: > 200 µM
27 | 0.036 | 0.013 | Cn1c(Cc2ccc3c(c2)OCC3)nc2cc(O[C@H]3CC[C@@H](C(=O)O)CC3)ccc21 | 
28 |  |  | O=C(O)C[C@H]1CC[C@H](Oc2ccc3oc4ccccc4c(=O)c3c2)CC1 | IC50 [3]: > 200 µM
29 | 56 | 61 | Cc1cccc(Cc2nc3c(Cl)c(O[C@H]4CC[C@@H](C(=O)O)CC4)ccc3n2C)c1 | 
30 | 0.6 | 1.9 | Cc1cccc(Cc2c(C#N)c3cc(O[C@H]4CC[C@@H](C(=O)O)CC4)ccc3n2C)c1 | 
31 | 0.44 | 0.6 | Cc1cccc(Cc2c(C(N)=O)c3cc(O[C@H]4CC[C@@H](C(=O)O)CC4)ccc3n2C)c1 | 
32 | 59 | 4.4 | O=C(O)[C@H]1CC[C@@H](Oc2ccc3oc(-c4ccccc4)nc3c2)CC1 | 
33 | 0.013 | 0.013 | Cc1cccc(Cc2nc3cc(O[C@H]4CC[C@@](F)(c5nnn[nH]5)CC4)ccc3n2C)c1 | 
34 |  | > 200 | Cc1cccc(C(=O)c2nc3cc(O[C@H]4CC[C@@H](C(=O)O)CC4)ccc3n2C)c1 | 
35 | 0.086 | 0.19 | Cn1c(Cc2cccc(C(F)(F)F)c2)nc2cc(O[C@H]3CC[C@@H](C(=O)O)CC3)ccc21 | 
36 | 0.025 | 0.034 | Cc1cccc(Cc2nc3cc(O[C@H]4CC[C@@H](c5nnn[nH]5)CC4)ccc3n2C)c1 | 
37 | > 200 | 141 | Cn1c(Cc2cccnc2)nc2cc(O[C@H]3CC[C@@H](C(=O)O)CC3)ccc21 | 
